Positions of bridges follow the written chain, without caps; N, C: chain ends. Non-standard residues stand in square brackets, D forms with d. Residues, ends and D or L forms follow the SMILES beside them. Phe(4-CH2NH2) = NCc1ccc(C[C@H](N)C(=O)O)cc1; Bip = N[C@@H](Cc1ccc(-c2ccccc2)cc1)C(=O)O; Ala(cPent) = N[C@@H](CC1CCCC1)C(=O)O; NMeF = CN[C@@H](Cc1ccccc1)C(=O)O; NMeA = CN[C@@H](C)C(=O)O; Dap = NC[C@H](N)C(=O)O; Sar = CNCC(=O)O
biological target: T1, human PD-1 (Jurkat-PD-1 cells) / PE-labeled human PD-L1-Ig (Homo sapiens, UniProt Q15116); test: Jurkat-PD-1 Cell Binding High-Content Screening Assay (CBA); Jurkat hPD1-PDL1 assay; settings: Jurkat cell line over-expressing human PD-1; PE-labeled PD-L1-Ig 20 nM final; compound incubated 2 hours at 37° C.; read-out: Jurkat HPD1-PDL1 IC50
T1 construct: expressed in transfected cells; host or cells: Jurkat cell line over-expressing human PD-1
T1 sequence (Q15116 25-288): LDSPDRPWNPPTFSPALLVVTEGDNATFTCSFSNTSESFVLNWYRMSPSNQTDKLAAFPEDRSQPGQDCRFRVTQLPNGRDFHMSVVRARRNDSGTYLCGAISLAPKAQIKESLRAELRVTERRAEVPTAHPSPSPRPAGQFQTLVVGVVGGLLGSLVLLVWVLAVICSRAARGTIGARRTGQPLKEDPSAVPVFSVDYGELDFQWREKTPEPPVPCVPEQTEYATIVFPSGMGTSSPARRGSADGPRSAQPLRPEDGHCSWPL
Procedure, shortened: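 Compound was added to Jurkat-PD-1 cells in DMEM plus 10% fetal calf serum and incubated 2 hours at 37° C. Binding of phycoerythrin-conjugated PD-L1-Ig (20 nM final) to the cells was imaged.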

IC50 [µM] | Compound
0.33 | CC(C)C[C@@H]1NC(=O)[C@H](CCCNC(=N)N)NC(=O)[C@H](Cc2ccccc2)N(C)C(=O)[C@@H](CCCCN)NC(=O)[C@H](CCCNC(=N)N)NC(=O)[C@H](Cc2ccc(-c3ccccc3)cc2)NC(=O)[C@H](C(C)C)NC(=O)[C@H](Cc2c[nH]c3ccccc23)NC(=O)[C@H](CC(=O)O)NC(=O)[C@H](Cc2ccc(O)cc2)NC(=O)[C@H](CC(N)=O)NC(=O)CSC[C@@H](C(=O)N[C@@H](C)C(N)=O)NC(=O)[C@H]([C@@H](C)O)NC(=O)[C@H](C(C)C)NC1=O [Example 1369] ({CH2CO}-NYDWV[Bip]R[dK][NMeF]RLVTCA-NH2; thioether N-14)
0.71 | CC(C)C[C@@H]1NC(=O)[C@H](Cc2c[nH]c3ccccc23)NC(=O)[C@H](CC(=O)O)NC(=O)[C@H](Cc2ccc(O)cc2)NC(=O)[C@H](Cc2ccccc2)NC(=O)CSC[C@@H](C(=O)N[C@@H](CCCCN)C(N)=O)NC(=O)[C@H](CO)NC(=O)[C@H](C(C)C)NC(=O)[C@H](CC(C)C)NC(=O)[C@H](CC(N)=O)NC(=O)CN(C)C(=O)[C@H](C)N(C)C(=O)[C@H](C(C)C)NC(=O)[C@H](Cc2ccc(-c3ccccc3)cc2)NC1=O [Example 1253] ({CH2CO}-FYDWL[Bip]V[NMeA][Sar]NLVSCK-NH2; thioether N-14)
0.66 | CC(C)C[C@@H]1NC(=O)[C@H](CC(N)=O)NC(=O)CN(C)C(=O)[C@H](C)N(C)C(=O)[C@H](C(C)C)NC(=O)[C@H](Cc2ccc(-c3ccccc3)cc2)NC(=O)[C@H](CC2CCCC2)NC(=O)[C@H](Cc2c[nH]c3ccccc23)NC(=O)[C@H](CC(=O)O)NC(=O)[C@H](Cc2ccc(O)cc2)NC(=O)[C@H](Cc2ccccc2)NC(=O)CSC[C@@H](C(=O)N[C@@H](C)C(N)=O)NC(=O)[C@H](CO)NC(=O)[C@H](C(C)C)NC1=O [Example 1147] ({CH2CO}-FYDW[Ala(cPent)][Bip]V[NMeA][Sar]NLVSCA-NH2; thioether N-14)
0.93 | CC(C)C[C@@H]1NC(=O)[C@H](Cc2c[nH]c3ccccc23)NC(=O)[C@H](CC(=O)O)NC(=O)[C@H](Cc2ccc(O)cc2)NC(=O)[C@H](Cc2ccccc2)NC(=O)CSC[C@@H](C(=O)N[C@@H](CN)C(N)=O)NC(=O)[C@H](CO)NC(=O)[C@H](C(C)C)NC(=O)[C@H](CC(C)C)NC(=O)[C@H](CC(N)=O)NC(=O)CN(C)C(=O)[C@H](C)N(C)C(=O)[C@H](C(C)C)NC(=O)[C@H](Cc2ccc(-c3ccccc3)cc2)NC1=O [Example 1168] ({CH2CO}-FYDWL[Bip]V[NMeA][Sar]NLVSC[Dap]-NH2; thioether N-14)
0.16 | CC(C)C[C@@H]1NC(=O)[C@H](CC(N)=O)NC(=O)CN(C)C(=O)[C@H](C)N(C)C(=O)[C@H](C(C)C)NC(=O)[C@H](Cc2ccc(-c3ccccc3)cc2)NC(=O)[C@H](Cc2ccc(O)cc2)NC(=O)[C@H](Cc2c[nH]c3ccccc23)NC(=O)[C@H](CC(=O)O)NC(=O)[C@H](Cc2ccc(O)cc2)NC(=O)[C@H](Cc2ccccc2)NC(=O)CSC[C@@H](C(=O)NCC(N)=O)NC(=O)[C@H](CO)NC(=O)[C@H](C(C)C)NC1=O [Example 1224] ({CH2CO}-FYDWY[Bip]V[NMeA][Sar]NLVSCG-NH2; thioether N-14)
0.07 | CC(C)C[C@@H]1NC(=O)[C@H](Cc2c[nH]c3ccccc23)NC(=O)[C@H](CC(=O)O)NC(=O)[C@H](Cc2ccc(CN)cc2)NC(=O)[C@H](Cc2ccccc2)NC(=O)CSC[C@@H](C(=O)N[C@@H](C)C(N)=O)NC(=O)[C@H](CO)NC(=O)[C@H](C(C)C)NC(=O)[C@H](CC(C)C)NC(=O)[C@H](CC(N)=O)NC(=O)[C@H]2CCCN2C(=O)[C@H](C)N(C)C(=O)[C@H](C(C)C)NC(=O)[C@H](Cc2ccc(-c3ccccc3)cc2)NC1=O [Example 1040] ({CH2CO}-F[Phe(4-CH2NH2)]DWL[Bip]V[NMeA][dP]NLVSCA-NH2; thioether N-14)

— patent US20240360178A1, “MACROCYCLIC IMMUNOMODULATORS” (Bristol-Myers Squibb Company, priority 2021, published 2024)
